Laboratory results from US20230114728A1 (Venatorx Pharmaceuticals, Inc., priority 2019, published 2023).

Key:
N. gonorrhoeae PBP2 = molecular target: T1, N. gonorrhoeae PBP2 (Neisseria gonorrhoeae, UniProt P08149); assay: Bocillin-FL fluorescence polarization competition binding assay, N. gonorrhoeae PBP2; conditions: fluorescence polarization competition binding assay using Bocillin-FL; read-out: N. gonorrhoeae PBP2 Potency
T1 construct: made in house
In short: (§1)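 Fluorescence polarization (ex 490/em 520 nm) competition of inhibitors against Bocillin-FL at 0.1 μM, read up to 60 min. Final PBP levels: E. coli PBP3 1.5 μM; A. baumannii PBP2 2.5 μM, PBP3 0.2 μM in Tris pH 8.0/NaCl/glycerol/Tween 20; N. gonorrhoeae PBP2 […] in Hepes pH 8.0/NaCl/glycerol. EC50 = concentration halving PBP-bound Bocillin-FL.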

A. baumannii PBP2 = molecular target: T2, A. baumannii PBP2 (Acinetobacter baumannii, UniProt D0C8Z9); assay: Bocillin-FL fluorescence polarization competition binding assay, A. baumannii PBP2; conditions: fluorescence polarization competition binding assay using Bocillin-FL; read-out: A. baumannii PBP2 Potency
T2 construct: made in house
T2 sequence (D0C8Z9 1-672): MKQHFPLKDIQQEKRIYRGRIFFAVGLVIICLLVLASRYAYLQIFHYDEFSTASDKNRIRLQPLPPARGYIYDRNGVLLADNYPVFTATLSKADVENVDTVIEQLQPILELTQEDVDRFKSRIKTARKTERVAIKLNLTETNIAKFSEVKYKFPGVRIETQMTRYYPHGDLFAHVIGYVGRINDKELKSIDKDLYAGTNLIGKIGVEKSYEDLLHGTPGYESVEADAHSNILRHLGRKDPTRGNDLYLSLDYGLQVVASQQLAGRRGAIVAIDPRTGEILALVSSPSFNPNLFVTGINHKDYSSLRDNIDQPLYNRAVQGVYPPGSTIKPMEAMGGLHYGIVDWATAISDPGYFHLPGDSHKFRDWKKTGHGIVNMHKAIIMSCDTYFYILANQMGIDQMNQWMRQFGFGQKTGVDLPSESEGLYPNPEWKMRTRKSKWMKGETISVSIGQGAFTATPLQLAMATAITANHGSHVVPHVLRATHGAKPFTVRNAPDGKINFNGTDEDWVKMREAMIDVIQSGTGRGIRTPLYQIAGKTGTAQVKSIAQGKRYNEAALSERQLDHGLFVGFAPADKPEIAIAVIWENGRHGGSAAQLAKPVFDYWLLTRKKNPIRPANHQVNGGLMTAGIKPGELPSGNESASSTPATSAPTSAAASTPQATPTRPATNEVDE
In short: as §1

A. baumannii PBP1a = A. baumannii PBP1a (Acinetobacter baumannii, UniProt A0ABX6CK30); assay: Bocillin-FL fluorescence polarization competition binding assay, A. baumannii PBP1a; conditions: fluorescence polarization competition binding assay using Bocillin-FL; column 1; read-out: A. baumannii PBP1a Potency
Sequence of A. baumannii PBP1a (A0ABX6CK30 entry or part of it): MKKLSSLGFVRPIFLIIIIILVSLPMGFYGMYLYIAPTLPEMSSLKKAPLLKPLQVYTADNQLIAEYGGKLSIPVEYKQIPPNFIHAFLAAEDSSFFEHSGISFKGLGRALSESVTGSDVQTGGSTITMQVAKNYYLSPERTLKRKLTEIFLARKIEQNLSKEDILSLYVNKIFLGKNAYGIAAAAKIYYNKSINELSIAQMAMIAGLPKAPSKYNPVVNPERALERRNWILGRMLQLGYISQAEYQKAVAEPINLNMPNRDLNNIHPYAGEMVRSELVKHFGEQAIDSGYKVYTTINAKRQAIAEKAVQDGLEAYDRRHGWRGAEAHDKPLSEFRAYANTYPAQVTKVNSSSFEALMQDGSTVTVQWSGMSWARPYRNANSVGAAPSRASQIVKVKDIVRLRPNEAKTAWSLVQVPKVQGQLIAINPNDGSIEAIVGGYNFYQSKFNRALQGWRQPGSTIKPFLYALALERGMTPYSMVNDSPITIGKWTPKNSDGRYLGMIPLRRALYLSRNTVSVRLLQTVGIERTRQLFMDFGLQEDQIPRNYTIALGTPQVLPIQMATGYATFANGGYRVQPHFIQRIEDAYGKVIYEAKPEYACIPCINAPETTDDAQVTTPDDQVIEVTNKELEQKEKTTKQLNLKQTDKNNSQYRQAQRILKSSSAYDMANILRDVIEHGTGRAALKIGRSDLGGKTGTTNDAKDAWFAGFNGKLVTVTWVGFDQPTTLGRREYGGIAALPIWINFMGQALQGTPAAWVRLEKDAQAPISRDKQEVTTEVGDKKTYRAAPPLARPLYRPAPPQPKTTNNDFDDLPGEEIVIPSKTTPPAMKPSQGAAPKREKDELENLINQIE

T1 sequence (P08149 whole entry): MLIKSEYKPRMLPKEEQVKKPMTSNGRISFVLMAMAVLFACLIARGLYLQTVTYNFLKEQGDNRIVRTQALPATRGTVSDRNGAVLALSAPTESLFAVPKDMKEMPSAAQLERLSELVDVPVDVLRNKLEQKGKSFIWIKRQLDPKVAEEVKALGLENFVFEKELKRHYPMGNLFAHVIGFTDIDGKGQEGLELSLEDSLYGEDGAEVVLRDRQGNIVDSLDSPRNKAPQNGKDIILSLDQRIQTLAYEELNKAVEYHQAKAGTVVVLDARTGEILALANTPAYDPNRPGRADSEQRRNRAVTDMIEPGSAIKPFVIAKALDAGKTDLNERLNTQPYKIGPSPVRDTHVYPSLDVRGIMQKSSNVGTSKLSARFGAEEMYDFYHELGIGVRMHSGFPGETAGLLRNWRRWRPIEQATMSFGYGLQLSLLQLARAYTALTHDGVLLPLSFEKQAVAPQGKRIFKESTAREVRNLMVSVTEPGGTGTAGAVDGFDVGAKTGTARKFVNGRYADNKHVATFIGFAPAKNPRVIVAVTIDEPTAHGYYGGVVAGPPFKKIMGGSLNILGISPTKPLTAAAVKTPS

In the case of CS(=O)(=O)N1CCN(C(=O)N[C@@H](C(=O)N[C@H]2Cc3ccc(F)c(C(=O)O)c3OB2O)c2cc(F)c(O)c(O)c2Cl)C1=O (single isomer, unassigned) [Example 189], the EC50 (N. gonorrhoeae PBP2) is reported as 10 to 30 µM, the EC50 (A. baumannii PBP2) is reported as > 100 µM and the EC50 (A. baumannii PBP1a) is reported as > 100 µM.
For CCN1CCN(C(=O)N[C@@H](C(=O)N[C@H]2Cc3cccc(C(=O)O)c3OB2O)c2c(O)cc(O)cc2F)C(=O)C1=O (single isomer, unassigned) [Example 182], the EC50 (N. gonorrhoeae PBP2) was > 100 µM, the EC50 (A. baumannii PBP2) was > 100 µM and the EC50 (A. baumannii PBP1a) was > 100 µM.
In the case of CCN1CCN(C(=O)N[C@@H](C(=O)N[C@H]2Cc3cc(Cl)c(F)c(C(=O)O)c3OB2O)c2c(F)cc(O)c(O)c2Cl)C(=O)C1=O [Example 191, (R)-6-chloro-3-((R)-2-(2-chloro-6-fluoro-3,4-dihydroxyphenyl)-2-(4-ethyl-2,3-dioxopiperazine-1-carboxamido)acetamido)-7-fluoro-2-hydroxy-3,4-dihydro-2H-benzo[e][1,2]oxaborinine-8-carboxylic acid], the EC50 (N. gonorrhoeae PBP2) is reported as 30 to 100 µM, the EC50 (A. baumannii PBP2) is reported as 30 to 100 µM and the EC50 (A. baumannii PBP1a) is reported as > 100 µM.
In the case of O=C(NCCCN1CCN(C(=O)NC(C(=O)N[C@H]2Cc3ccc(F)c(C(=O)O)c3OB2O)c2ncc(O)cc2F)C(=O)C1=O)c1ccc(O)c(O)c1Cl (stereo partly drawn) [Example 3, (3R)-3-(2-(4-(3-(2-chloro-3,4-dihydroxybenzamido)propyl)-2,3-dioxopiperazine-1-carboxamido)-2-(3-fluoro-5-hydroxypyridin-2-yl)acetamido)-7-fluoro-2-hydroxy-3,4-dihydro-2H-benzo[e][1,2]oxaborinine-8-carboxylic acid], the EC50 (A. baumannii PBP2) is reported as > 100 µM and the EC50 (A. baumannii PBP1a) is reported as 30 to 100 µM.
With NCCCN1CCN(C(=O)N[C@@H](C(=O)N[C@H]2Cc3cc(Cl)c(F)c(C(=O)O)c3OB2O)c2c(F)cc(O)c(O)c2Cl)C(=O)C1=O [Example 190, (R)-3-((R)-2-(4-(3-aminopropyl)-2,3-dioxopiperazine-1-carboxamido)-2-(2-chloro-6-fluoro-3,4-dihydroxyphenyl)acetamido)-6-chloro-7-fluoro-2-hydroxy-3,4-dihydro-2H-benzo[e][1,2]oxaborinine-8-carboxylic acid] the EC50 (N. gonorrhoeae PBP2) was > 100 µM, the EC50 (A. baumannii PBP2) was > 100 µM and the EC50 (A. baumannii PBP1a) was > 100 µM.
